The text below walks through data of paper PMC6120666 (The EMBO Journal, 2018).

Holding throughout (test): Drug affinity chromatography with c-ponatinib and LC-MS/MS (ponatinib interactome)
Holding throughout (assay type): binding

For assay [1], the target named is T1, proteins of U2OS cell lysate (Homo sapiens, UniProt O00264).
T1 construct: Proteins enriched by c-ponatinib from U2OS cell lysate; endogenous in cells; host or cells: U2OS cell lysate
Conditions: PGRMC1, Membrane-associated progesterone receptor component 1. In a few lines: (§1)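 Proteins were identified by nano-UPLC–MS/MS after elution with formic acid and trypsin digestion. They were captured from U2OS lysate (2 mg protein per pulldown, NP-40 buffer) on amine-coupled NHS beads during a 2 h incubation at 4 °C.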

Assay [2] has as its target T2, proteins of U2OS cell lysate (Homo sapiens, UniProt O14974).
T2 construct: Proteins enriched by c-ponatinib from U2OS cell lysate; endogenous in cells; host or cells: U2OS cell lysate
Conditions: PPP1R12A, Protein phosphatase 1 regulatory subunit 12A. In a few lines:
as §1

For assay [3], the target named is T3, proteins of U2OS cell lysate (Homo sapiens, UniProt O43143).
T3 construct: Proteins enriched by c-ponatinib from U2OS cell lysate; endogenous in cells; host or cells: U2OS cell lysate
Particulars: DHX15, Putative pre-mRNA-splicing factor ATP-dependent RNA helicase DHX15. In a few lines: as §1

Assay [4] concerns the target T4, proteins of U2OS cell lysate (Homo sapiens, UniProt P00403).
T4 construct: Proteins enriched by c-ponatinib from U2OS cell lysate; endogenous in cells; host or cells: U2OS cell lysate
Conditions: MT-CO2, Cytochrome c oxidase subunit 2. In a few lines: as §1

For assay [5], the target named is T5, proteins of U2OS cell lysate (Homo sapiens, UniProt P07814).
T5 construct: Proteins enriched by c-ponatinib from U2OS cell lysate; endogenous in cells; host or cells: U2OS cell lysate
Conditions: EPRS, Bifunctional glutamate/proline--tRNA ligase. In a few lines:
as §1

Assay [6] concerns the target T6, proteins of U2OS cell lysate (Homo sapiens, UniProt P08238).
T6 construct: Proteins enriched by c-ponatinib from U2OS cell lysate; endogenous in cells; host or cells: U2OS cell lysate
Conditions: HSP90AB1, Heat shock protein HSP 90-beta. In a few lines: as §1

Assay [7] deals with T7, proteins of U2OS cell lysate (Homo sapiens, UniProt P39019).
T7 construct: Proteins enriched by c-ponatinib from U2OS cell lysate; endogenous in cells; host or cells: U2OS cell lysate
Particulars: RPS19, 40S ribosomal protein S19. In a few lines: as §1

The target of assay [8] is T8, proteins of U2OS cell lysate (Homo sapiens, UniProt P47897).
T8 construct: Proteins enriched by c-ponatinib from U2OS cell lysate; endogenous in cells; host or cells: U2OS cell lysate
Conditions: QARS, Glutamine--tRNA ligase. In a few lines: as §1

Assay [9] deals with T9, proteins of U2OS cell lysate (Homo sapiens, UniProt P47914).
T9 construct: Proteins enriched by c-ponatinib from U2OS cell lysate; endogenous in cells; host or cells: U2OS cell lysate
Conditions: RPL29, 60S ribosomal protein L29. In a few lines: as §1

Assay [10] addresses T10, proteins of U2OS cell lysate (Homo sapiens, UniProt P49368).
T10 construct: Proteins enriched by c-ponatinib from U2OS cell lysate; endogenous in cells; host or cells: U2OS cell lysate
Conditions: CCT3, T-complex protein 1 subunit gamma. In a few lines:
as §1

For assay [11], the target named is T11, proteins of U2OS cell lysate (Homo sapiens, UniProt P51610).
T11 construct: Proteins enriched by c-ponatinib from U2OS cell lysate; endogenous in cells; host or cells: U2OS cell lysate
Conditions: HCFC1, Host cell factor 1. In a few lines: as §1

Assay [12] concerns the target T12, proteins of U2OS cell lysate (Homo sapiens, UniProt P62491).
T12 construct: Proteins enriched by c-ponatinib from U2OS cell lysate; endogenous in cells; host or cells: U2OS cell lysate
Conditions: RAB11A;RAB11B, Ras-related protein Rab-11A. In a few lines: as §1

Assay [13] addresses T13, proteins of U2OS cell lysate (Homo sapiens, UniProt Q12851).
T13 construct: Proteins enriched by c-ponatinib from U2OS cell lysate; endogenous in cells; host or cells: U2OS cell lysate
Particulars: MAP4K2, Mitogen-activated protein kinase kinase kinase kinase 2. In a few lines: as §1

For assay [14], the target named is T14, proteins of U2OS cell lysate (Homo sapiens, UniProt Q14566).
T14 construct: Proteins enriched by c-ponatinib from U2OS cell lysate; endogenous in cells; host or cells: U2OS cell lysate
Conditions: MCM6, DNA replication licensing factor MCM6. In a few lines: as §1

The target of assay [15] is T15, proteins of U2OS cell lysate (Homo sapiens, UniProt Q15750).
T15 construct: Proteins enriched by c-ponatinib from U2OS cell lysate; endogenous in cells; host or cells: U2OS cell lysate
Conditions: TAB1, TGF-beta-activated kinase 1 and MAP3K7-binding protein 1. In a few lines: as §1

The target in assay [16] is T16, proteins of U2OS cell lysate (Homo sapiens, UniProt Q9UPT5).
T16 construct: Proteins enriched by c-ponatinib from U2OS cell lysate; endogenous in cells; host or cells: U2OS cell lysate
Particulars: EXOC7, Exocyst complex component 7. In a few lines:
as §1

Assay [17] concerns the target T17, proteins of U2OS cell lysate (Homo sapiens, UniProt P21796).
T17 construct: Proteins enriched by c-ponatinib from U2OS cell lysate; endogenous in cells; host or cells: U2OS cell lysate
Particulars: captured protein VDAC1, Rank 118. In a few lines:
as §1

For assay [18], the target named is T18, proteins of U2OS cell lysate (Homo sapiens, UniProt P62316).
T18 construct: Proteins enriched by c-ponatinib from U2OS cell lysate; endogenous in cells; host or cells: U2OS cell lysate
Conditions: captured protein SNRPD2, Rank 185. In a few lines:
as §1

T4 sequence (P00403 whole entry): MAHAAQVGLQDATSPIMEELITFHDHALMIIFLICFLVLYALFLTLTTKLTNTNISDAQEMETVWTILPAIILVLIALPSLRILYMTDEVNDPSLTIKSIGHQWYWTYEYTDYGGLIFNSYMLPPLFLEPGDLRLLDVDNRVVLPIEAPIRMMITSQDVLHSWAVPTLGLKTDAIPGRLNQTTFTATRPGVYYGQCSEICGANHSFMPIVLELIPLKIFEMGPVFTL
T1 sequence (O00264 whole entry): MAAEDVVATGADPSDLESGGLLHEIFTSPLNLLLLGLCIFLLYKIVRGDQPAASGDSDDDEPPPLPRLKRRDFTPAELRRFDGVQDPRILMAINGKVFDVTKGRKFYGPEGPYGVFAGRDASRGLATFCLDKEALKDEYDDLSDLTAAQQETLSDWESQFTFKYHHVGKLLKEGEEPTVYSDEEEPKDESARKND
T14 sequence (Q14566 whole entry): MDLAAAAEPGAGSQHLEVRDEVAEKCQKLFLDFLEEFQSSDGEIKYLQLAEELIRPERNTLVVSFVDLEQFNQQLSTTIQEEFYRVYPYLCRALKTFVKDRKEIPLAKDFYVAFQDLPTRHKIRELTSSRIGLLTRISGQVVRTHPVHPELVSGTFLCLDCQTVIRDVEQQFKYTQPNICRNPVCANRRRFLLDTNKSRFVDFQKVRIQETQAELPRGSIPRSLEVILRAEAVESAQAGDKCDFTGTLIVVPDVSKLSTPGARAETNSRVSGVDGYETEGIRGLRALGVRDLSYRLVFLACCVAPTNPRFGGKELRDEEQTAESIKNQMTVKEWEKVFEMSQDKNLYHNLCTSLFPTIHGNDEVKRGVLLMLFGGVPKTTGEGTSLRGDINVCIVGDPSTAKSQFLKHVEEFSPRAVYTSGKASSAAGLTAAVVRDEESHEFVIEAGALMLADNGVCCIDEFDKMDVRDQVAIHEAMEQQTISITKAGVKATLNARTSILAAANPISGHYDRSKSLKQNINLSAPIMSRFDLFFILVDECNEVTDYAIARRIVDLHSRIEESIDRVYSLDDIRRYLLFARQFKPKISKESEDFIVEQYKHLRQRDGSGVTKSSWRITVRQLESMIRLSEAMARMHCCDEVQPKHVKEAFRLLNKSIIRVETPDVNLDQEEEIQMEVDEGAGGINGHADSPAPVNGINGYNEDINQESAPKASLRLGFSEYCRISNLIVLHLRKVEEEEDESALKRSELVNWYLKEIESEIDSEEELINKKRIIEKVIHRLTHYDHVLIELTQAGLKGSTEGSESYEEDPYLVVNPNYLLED
T10 sequence (P49368 whole entry): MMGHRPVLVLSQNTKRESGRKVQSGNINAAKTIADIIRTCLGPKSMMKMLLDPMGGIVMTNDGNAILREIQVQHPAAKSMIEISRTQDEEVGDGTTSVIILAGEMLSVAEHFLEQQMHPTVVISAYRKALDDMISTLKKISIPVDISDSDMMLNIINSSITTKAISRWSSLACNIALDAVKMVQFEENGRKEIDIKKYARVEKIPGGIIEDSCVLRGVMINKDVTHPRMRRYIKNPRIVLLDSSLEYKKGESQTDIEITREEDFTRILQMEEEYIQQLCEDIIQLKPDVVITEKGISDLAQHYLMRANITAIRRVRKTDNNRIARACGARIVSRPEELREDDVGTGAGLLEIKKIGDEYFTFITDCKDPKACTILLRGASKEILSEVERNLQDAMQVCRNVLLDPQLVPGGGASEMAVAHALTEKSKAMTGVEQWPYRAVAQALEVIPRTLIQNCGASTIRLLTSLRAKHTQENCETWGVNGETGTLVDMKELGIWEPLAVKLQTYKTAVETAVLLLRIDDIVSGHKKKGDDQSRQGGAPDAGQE
T3 sequence (O43143 whole entry): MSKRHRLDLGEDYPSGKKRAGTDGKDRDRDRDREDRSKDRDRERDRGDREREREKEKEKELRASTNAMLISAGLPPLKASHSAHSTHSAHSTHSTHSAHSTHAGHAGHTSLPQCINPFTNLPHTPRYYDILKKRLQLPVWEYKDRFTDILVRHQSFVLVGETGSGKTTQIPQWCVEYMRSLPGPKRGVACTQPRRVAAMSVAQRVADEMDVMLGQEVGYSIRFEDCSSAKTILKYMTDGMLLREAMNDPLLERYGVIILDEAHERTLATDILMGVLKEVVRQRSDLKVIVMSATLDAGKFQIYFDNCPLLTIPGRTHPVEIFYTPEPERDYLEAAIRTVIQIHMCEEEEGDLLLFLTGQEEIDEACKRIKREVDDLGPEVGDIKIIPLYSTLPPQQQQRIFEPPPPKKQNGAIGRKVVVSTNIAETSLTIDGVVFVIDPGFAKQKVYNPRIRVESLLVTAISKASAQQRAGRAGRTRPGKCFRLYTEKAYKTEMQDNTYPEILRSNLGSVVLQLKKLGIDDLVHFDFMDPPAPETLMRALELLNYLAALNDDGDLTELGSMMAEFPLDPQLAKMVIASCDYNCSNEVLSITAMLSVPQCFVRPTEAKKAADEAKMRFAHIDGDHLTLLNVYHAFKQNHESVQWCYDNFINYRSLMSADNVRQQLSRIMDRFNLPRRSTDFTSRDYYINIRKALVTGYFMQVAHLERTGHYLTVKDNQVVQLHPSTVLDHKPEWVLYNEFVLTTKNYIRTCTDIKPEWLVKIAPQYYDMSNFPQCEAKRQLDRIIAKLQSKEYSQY
T6 sequence (P08238 whole entry): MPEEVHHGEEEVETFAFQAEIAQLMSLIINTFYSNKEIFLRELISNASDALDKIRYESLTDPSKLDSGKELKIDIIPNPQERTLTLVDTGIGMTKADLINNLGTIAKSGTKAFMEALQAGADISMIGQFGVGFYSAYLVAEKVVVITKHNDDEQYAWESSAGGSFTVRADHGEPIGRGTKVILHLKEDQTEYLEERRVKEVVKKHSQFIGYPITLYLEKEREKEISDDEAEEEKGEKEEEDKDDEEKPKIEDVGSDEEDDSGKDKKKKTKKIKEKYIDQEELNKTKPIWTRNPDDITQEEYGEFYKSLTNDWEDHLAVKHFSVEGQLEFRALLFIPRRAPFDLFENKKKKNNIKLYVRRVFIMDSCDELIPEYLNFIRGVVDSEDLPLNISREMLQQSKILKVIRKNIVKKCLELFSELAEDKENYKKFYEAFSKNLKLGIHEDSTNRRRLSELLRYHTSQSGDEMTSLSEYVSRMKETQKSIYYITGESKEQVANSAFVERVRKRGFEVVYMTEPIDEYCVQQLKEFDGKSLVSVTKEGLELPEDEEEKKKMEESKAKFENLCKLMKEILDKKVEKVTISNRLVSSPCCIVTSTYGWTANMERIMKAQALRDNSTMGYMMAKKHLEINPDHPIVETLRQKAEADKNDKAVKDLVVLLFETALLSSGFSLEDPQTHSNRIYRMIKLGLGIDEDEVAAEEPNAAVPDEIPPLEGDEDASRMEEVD
T16 sequence (Q9UPT5 whole entry): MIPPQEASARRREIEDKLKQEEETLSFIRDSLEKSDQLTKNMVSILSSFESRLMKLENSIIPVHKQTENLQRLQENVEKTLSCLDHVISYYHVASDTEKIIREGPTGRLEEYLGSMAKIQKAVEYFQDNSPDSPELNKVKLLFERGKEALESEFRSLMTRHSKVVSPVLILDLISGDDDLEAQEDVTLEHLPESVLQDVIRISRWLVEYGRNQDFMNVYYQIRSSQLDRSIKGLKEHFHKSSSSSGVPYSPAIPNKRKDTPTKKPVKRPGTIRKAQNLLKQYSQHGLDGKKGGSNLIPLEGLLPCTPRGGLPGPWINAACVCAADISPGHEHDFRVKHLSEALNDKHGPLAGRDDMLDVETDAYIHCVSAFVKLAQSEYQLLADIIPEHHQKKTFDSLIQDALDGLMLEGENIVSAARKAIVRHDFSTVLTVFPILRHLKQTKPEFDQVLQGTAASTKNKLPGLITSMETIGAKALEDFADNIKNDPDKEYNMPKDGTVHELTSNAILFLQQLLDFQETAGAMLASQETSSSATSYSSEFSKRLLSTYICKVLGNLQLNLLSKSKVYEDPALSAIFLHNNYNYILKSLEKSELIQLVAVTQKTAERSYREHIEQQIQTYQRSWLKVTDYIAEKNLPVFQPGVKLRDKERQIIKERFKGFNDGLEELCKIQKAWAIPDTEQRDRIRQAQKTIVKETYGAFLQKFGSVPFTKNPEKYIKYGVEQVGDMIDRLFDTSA
T15 sequence (Q15750 whole entry): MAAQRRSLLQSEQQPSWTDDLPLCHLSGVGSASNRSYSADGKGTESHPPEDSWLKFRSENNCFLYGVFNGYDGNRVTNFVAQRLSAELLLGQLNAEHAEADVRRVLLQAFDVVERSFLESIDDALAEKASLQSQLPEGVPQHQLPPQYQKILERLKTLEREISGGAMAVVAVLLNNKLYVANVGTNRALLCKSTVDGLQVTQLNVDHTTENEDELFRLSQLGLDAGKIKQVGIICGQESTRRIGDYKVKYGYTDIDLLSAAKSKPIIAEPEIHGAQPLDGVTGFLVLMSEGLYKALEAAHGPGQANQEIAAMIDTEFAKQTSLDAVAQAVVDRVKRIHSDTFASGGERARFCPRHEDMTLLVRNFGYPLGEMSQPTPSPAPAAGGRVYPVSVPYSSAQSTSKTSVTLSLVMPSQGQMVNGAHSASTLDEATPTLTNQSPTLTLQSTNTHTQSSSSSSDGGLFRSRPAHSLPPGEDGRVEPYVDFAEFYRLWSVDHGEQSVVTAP
T18 sequence (P62316 whole entry): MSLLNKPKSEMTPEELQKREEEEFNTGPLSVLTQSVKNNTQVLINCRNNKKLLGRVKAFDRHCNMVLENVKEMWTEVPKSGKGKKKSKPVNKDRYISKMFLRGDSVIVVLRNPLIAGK
T17 sequence (P21796 whole entry): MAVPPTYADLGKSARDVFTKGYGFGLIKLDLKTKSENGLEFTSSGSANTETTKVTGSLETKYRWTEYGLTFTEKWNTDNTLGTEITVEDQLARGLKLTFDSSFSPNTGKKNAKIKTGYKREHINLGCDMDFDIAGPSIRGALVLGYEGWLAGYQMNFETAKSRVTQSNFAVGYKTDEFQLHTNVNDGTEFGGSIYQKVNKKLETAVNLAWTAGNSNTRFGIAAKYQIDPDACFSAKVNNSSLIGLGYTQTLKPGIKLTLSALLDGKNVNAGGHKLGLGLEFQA

Consider `Cc1ccc(C(=O)Nc2ccc(CN3CCN(C)CC3)c(C(F)(F)F)c2)cc1C#Cc1cnc2cccnn12` [PON], for which the “Average LFQ PON_WT” value in [1] is given as 23.2724; in assay [2] it was 20.7589; in assay [3], 20.8395; in assay [4] it was 20.775; in assay [5] it was 20.1996; in assay [6], 24.5074. For the same compound, the “Average LFQ PON_WT” value was 21.4728 in [7]; 19.3053 in [8]; 19.934 in [9]; 23.8873 in assay [10]; 21.0295 in assay [11]; 22.3634 in [12]. Besides, the “Average LFQ PON_WT” value in assay [13] is 27.1188; in assay [14], 19.2204; in [15], 26.3342; in [16], 19.8682.
`Cc1ccc(C(=O)Nc2ccc(CN3CCN(CCCN)CC3)c(C(F)(F)F)c2)cc1C#Cc1cnc2cccnn12` [c-ponatinib, reference compound]: the figures for the “Average LFQ intensity” value in assay [17] and in [18] were 23.117 and 22.0908, respectively.
